Measured values: patent publication US6335339B1, “Triazine antiviral compounds” (Scriptgen Pharmaceuticals, Inc., priority 1998, dated 2002)
“Also recorded” adds a separate entry of the source.

How the values were obtained:
Type in all cases: binding, Hepatitis B virus
HBV εRNA = assay: εRNA/oligonucleotide hybridization inhibition assay with rRNA competitor; details: for IC50 / HBV + rRNA IC50 (μM): radiolabeled εRNA, 60-fold excess rRNA competitor; for Specificity: ratio RRE+rRNA IC50/εRNA+rRNA IC50, max = inactive in RRE assay
Summary of the method: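 Inhibition of hybridization between 25 nM [32P]-εRNA and 100 nM biotinylated complementary oligonucleotide (50 mM Tris-HCl pH 7.5, 200 mM KCl, 5 mM MgCl2, 60 min, 25 °C), hybrids captured by streptavidin filter and counted. Titrations 0.1-200 μM with 60-fold excess rRNA; specificity = RRE+rRNA IC50/εRNA+rRNA IC50.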

εRNA = assay: RNase protection of end-labeled εRNA (B. Cereus RNase); details: compound 0 to 200 μM, 25° C., 30 minutes
Experimental: RNase protection was assessed by incubating an end-labeled RNA with the amount of RNase needed to yield a ladder representing single cut events at each possible cleavage site in the RNA structure (based upon a gel electrophoresis analysis). The presence of a ligand bound to the RNA renders the binding site inaccessible to the RNases and therefore, the binding site will be shown by the disappearance or weakening of specific bands in the digestion pattern (FIGS. 258A and 258B).
Reaction mixtures (10 μl) containing 50 mM Tris-HCl, pH 7.5, 50 mM KCl, 0.5 mg/ml rRNA (as a carrier), 0.5 pmol of 3′-end ^32P-labeled εRNA, 0.05 units of B. Cereus RNase, and compound 5 at concentrations between 0 and 200 μM were incubated at 25° C. for 30 minutes. The reaction products were resolved by gel electrophoresis in polyacrylamide gels. B. Cereus nuclease is a single strand specific RNase. The results are shown in FIG. 258A, wherein the sections of the ladder of digestion products corresponding to cleavage events occurring in the bulge and loop sections of the εRNA structure. […] Conversely, the loop and other regions of the structure where not affected.

[1] = test system: RNA target containing only the bulge region of εRNA; assay: melting temperature of bulge RNA (OD 260 nm); details: 2 μM RNA plus 10 μM compound; RNA without drug 65° C.
Experimental: The melting temperature of the RNA was determined by monitoring the change in optical density at 260 nm with increasing temperature.
Further, a smaller RNA target containing only the bulge region of εRNA was prepared, and the melting temperature (tm) of this RNA structure was determined by monitoring the change in optical density (OD) at 260 nm while increasing the temperature. A 1 ml aliquot of reaction mixture contained 50 mM NaCl, 10 mM sodium cacodylate, pH 7.0, 10% DMSO, and 2 μM bulge RNA.

With `CCCCN(CCCC)c1nc(NN=Cc2ccc([N+](=O)[O-])cc2)nc(Nc2ccc([N+](=O)[O-])cc2)n1` [Compound 5] the IC50 (HBV εRNA) was 49.3 µM, the Specificity (HBV εRNA) was “max” and the “protection of εRNA from RNase cleavage” value (εRNA) was “protects specific positions of RNA from digestion with RNases; also recorded: decrease in cleavage at specific positions of the bulge”.

With `Cc1[nH]c2ccccc2c1C=NNc1nc(Nc2ccccc2)nc(Nc2ccc([N+](=O)[O-])cc2)n1` [Compound 6] the IC50 (HBV εRNA) was 10.4 µM, the Specificity (HBV εRNA) was “max” and the “melting temperature (tm) of bulge RNA” value [1] was 83 °C.

Compound `CNc1nc(NN=Cc2ccccc2C(F)(F)F)nc(Nc2cccc(C(F)(F)F)c2)n1` [Compound 253] has an IC50 (HBV εRNA) of 11 µM and a Specificity (HBV εRNA) of 59.9.

In the case of `O=[N+]([O-])c1ccc(Nc2nc(NN=Cc3ccc(Br)cc3)nc(N3CCCCCC3)n2)cc1` [Compound 117], the IC50 (HBV εRNA) is reported as 15.6 µM and the Specificity (HBV εRNA) is reported as “max”.

In the case of `Oc1ccc(Br)cc1C=NNc1nc(Nc2cccc(Br)c2)nc(N2CCOCC2)n1` [Compound 232], the IC50 (HBV εRNA) is reported as 45.5 µM and the Specificity (HBV εRNA) is reported as “max”.

In the case of `COc1c(C=NNc2nc(NCc3ccccc3)nc(Nc3ccccc3)n2)cccc1[N+](=O)[O-]` [Compound 162], the IC50 (HBV εRNA) is reported as 11.7 µM and the Specificity (HBV εRNA) is reported as “max”.

For `COc1ccc(Nc2nc(NCCc3ccccc3)nc(N(C)C)n2)cc1OC` [Compound 252], the “HBV + rRNA IC50 (μM)” value (HBV εRNA) was “inactive”.

`FC(F)(F)c1cccc(Nc2nc(Nc3cccc(Cl)c3)nc(N3CCOCC3)n2)c1` [Compound 247] was tested, and the IC50 (HBV εRNA) was 6.7 µM and the Specificity (HBV εRNA) was “max”.

For `CNc1nc(NN=Cc2cc(Cl)ccc2O)nc(Nc2ccccc2)n1` [Compound 245], the IC50 (HBV εRNA) was 8.1 µM and the Specificity (HBV εRNA) was “max”.

With `O=[N+]([O-])c1ccc(Nc2nc(NCc3ccccc3)nc(N3CCOCC3)n2)cc1` [Compound 231] the IC50 (HBV εRNA) was 195 µM and the Specificity (HBV εRNA) was “max”.

`Cc1ccc(Nc2nc(NCc3ccccc3)nc(NN=Cc3cc(Br)cc(Br)c3O)n2)cc1C` [Compound 219] was tested, and the “HBV + rRNA IC50 (μM)” value (HBV εRNA) was “inactive”.

In the case of `Cc1ccc(Nc2nc(NCc3ccccc3)nc(NN=Cc3ccccc3F)n2)cc1C` [Compound 228], the IC50 (HBV εRNA) is reported as 79.3 µM and the Specificity (HBV εRNA) is reported as “max”.

In the case of `Cc1ccc(Nc2nc(NNC(=O)c3ccccc3O)nc(Oc3ccc([N+](=O)[O-])cc3)n2)cc1C` [Compound 250], the “HBV + rRNA IC50 (μM)” value (HBV εRNA) is reported as “inactive”.

For `Cc1ccc(Nc2nc(NN=Cc3ccc(Cl)cc3)nc(N3CCOCC3)n2)cc1Cl` [Compound 196], the IC50 (HBV εRNA) was 32.7 µM and the Specificity (HBV εRNA) was “max”.

With `CC(=NNc1nc(Nc2ccccc2)nc(N2CCCC2)n1)c1ccc(F)cc1` [Compound 227] the IC50 (HBV εRNA) was 12.8 µM and the Specificity (HBV εRNA) was “max”.

For `CCN(CC)c1nc(NN=Cc2c(O)ccc3ccccc23)nc(Nc2ccccc2)n1` [Compound 171], the IC50 (HBV εRNA) was 9.4 µM and the Specificity (HBV εRNA) was “max”.

`FC(F)(F)c1cccc(Nc2nc(NN=Cc3ccc(Cl)cc3)nc(N3CCOCC3)n2)c1` [Compound 120] was tested, and the IC50 (HBV εRNA) was 46 µM and the Specificity (HBV εRNA) was 24.1.

In the case of `Fc1cccc(C=NNc2nc(Nc3ccccc3)nc(N3CCCC3)n2)c1` [Compound 201], the IC50 (HBV εRNA) is reported as 53 µM and the Specificity (HBV εRNA) is reported as “max”.

`CCN(CC)c1nc(Nc2cccc(Br)c2)nc(Nc2cc(C)ccc2C)n1` [Compound 202] was tested, and the IC50 (HBV εRNA) was 68 µM and the Specificity (HBV εRNA) was “max”.

`CC(C=NNc1nc(Nc2ccc([N+](=O)[O-])cc2)nc(Nc2ccc(C)c(C)c2)n1)=Cc1ccccc1` [Compound 19] was tested, and the IC50 (HBV εRNA) was 9.9 µM and the Specificity (HBV εRNA) was “max”.

Work on `Cc1ccc(Nc2nc(NN=Cc3ccc(O)cc3O)nc(Nc3ccc([N+](=O)[O-])cc3)n2)cc1C` [Compound 9] yielded an IC50 (HBV εRNA) of 6.2 µM and a Specificity (HBV εRNA) of 132.6.

`Cc1ccccc1Nc1nc(NN=Cc2ccc3c(c2)OCO3)nc(Nc2ccc([N+](=O)[O-])cc2)n1` [Compound 29] was tested, and the IC50 (HBV εRNA) was 24.8 µM and the Specificity (HBV εRNA) was “max”.

For `Cc1ccc(Nc2nc(NN=Cc3ccccc3)nc(Nc3ccccc3)n2)cc1` [Compound 25], the IC50 (HBV εRNA) was 11.9 µM and the Specificity (HBV εRNA) was “max”.

With `Oc1ccc(Cl)cc1C=NNc1nc(Nc2ccc3ccccc3c2)nc(N2CCOCC2)n1` [Compound 160] the IC50 (HBV εRNA) was 9.5 µM and the Specificity (HBV εRNA) was 44.2.

For `Brc1ccc(Nc2nc(NCc3ccccc3)nc(Nc3ccc(Br)cc3)n2)cc1` [Compound 230], the IC50 (HBV εRNA) was 20.9 µM and the Specificity (HBV εRNA) was “max”.

With `COc1c(C=NNc2nc(N3CCCC3)nc(N3CCOCC3)n2)cccc1[N+](=O)[O-]` [Compound 193] the IC50 (HBV εRNA) was 28 µM and the Specificity (HBV εRNA) was “max”.

For `Oc1ccccc1C=NNc1nc(Nc2ccccc2)nc(N2CCCCC2)n1` [Compound 169], the IC50 (HBV εRNA) was 15.4 µM and the Specificity (HBV εRNA) was “max”.

`Clc1ccc(C=NNc2nc(Nc3ccccc3)nc(N3CCCC3)n2)cc1` [Compound 218] showed an IC50 (HBV εRNA) of 4.8 µM and a Specificity (HBV εRNA) of 12.0.

For `C(=Cc1ccccc1)C=NNc1nc(Nc2ccccc2)nc(Nc2ccccc2)n1` [Compound 125], the IC50 (HBV εRNA) was 35.1 µM and the Specificity (HBV εRNA) was 28.5.

In the case of `COc1cccc(C=NNc2nc(Nc3ccccc3)nc(N3CCCC3)n2)c1O` [Compound 170], the IC50 (HBV εRNA) is reported as 6.2 µM and the Specificity (HBV εRNA) is reported as 119.3.

For `CC(=NNc1nc(NCc2ccccc2)nc(Nc2ccccc2)n1)c1ccc([N+](=O)[O-])cc1` [Compound 182], the IC50 (HBV εRNA) was 70.4 µM and the Specificity (HBV εRNA) was “max”.

In the case of `CCCCN(CCCC)c1nc(NN=Cc2cccc(Cl)c2)nc(Nc2ccc([N+](=O)[O-])cc2)n1` [Compound 35], the IC50 (HBV εRNA) is reported as 24.9 µM and the Specificity (HBV εRNA) is reported as “max”.

`Oc1ccc(I)cc1C=NNc1nc(NCc2ccccc2)nc(Nc2ccccc2)n1` [Compound 33] was tested, and the IC50 (HBV εRNA) was 37.2 µM and the Specificity (HBV εRNA) was “max”.

For `COc1ccc(Br)cc1/C=N/Nc1nc(Nc2cccc([N+](=O)[O-])c2)nc(N2CCOCC2)n1` [Compound 28], the IC50 (HBV εRNA) was 18.9 µM and the Specificity (HBV εRNA) was “max”.
